SMILES strings stand for the structures.

The subject of the experiment is focal onset seizures induced by electrostimulation of 44 mA, 6 Hz, 3 sec in ICR mouse. The experiment can be described thus: 6 Hz method for screening anticonvulsants (6 Hz, 44 mA electrostimulation). To be noted: male ICR mice, intraperitoneal (ip), electrostimulation 44 mA, 3 sec to the eye, number of non-seizure animals/number of animals used. Format: in vivo. The source says:
The utility of the compounds according to the present invention as an anticonvulsant agent has been investigated by the 6 Hz method, which has been well established as pharmacological screening methods of convulsant agents for focal onset seizures. The procedure of the 6 Hz method for screening anticonvulsant was as follows:
1) Preparation of Experimental Animals
Male ICR mice are purchased from Orient Bio, Inc. of Korea, and are stored and managed according to laboratory animal management standards of the Institutional Animal Care and Use Committee (IACUC) by putting the same in a wire net cage under an environment in which an ambient temperature of 19 to 25° C., 40 to 60% relative humidity and 12 hour periods of light/dark were auto-controlled, and water was freely taken. After stabilization for a week, mice with a body weight of 18 to 23 g were used in the experiment.
2) Evaluation of the Anticonvulsant Effect of a Compound
5% Tetracaine (Sigma) was added to both eyes to provide a local anesthetic effect at 5 to 10 minutes before the period of electrical stimulation at the animal ICR mouse. The compounds to be tested were dissolved in distilled water in which 30% polyethylene glycol 300+5% dimethylsulfoxide+5% Cremophor was dissolved and administered intraperitoneally (ip) to the animal at a dosage volume of 10 mL/kg. Then, electrostimulation of 44 mA, 6 Hz, and 3 sec was applied to the eye to induce focus-generating seizures. After the electrical stimulation, the presence of seizures due to drug effects was confirmed, and the ratio of animals showing no seizures was expressed as a protection rate (the number of non-seizure animals/the number of animals used in experiments=protection rate). […]
In the case of `OC(Cc1nnco1)c1cc(OCCCC(F)(F)F)ccc1F` (stereo not shown) [Example 23, 1-[2-fluoro-5-(4,4,4-trifluorobutoxy)phenyl]-2-(1,3,4-oxadiazol-2-yl)ethanol], the “6 Hz, 44 mA protection rate” value is reported as “+ (0.2 to 0.6 are scored as ‘+’)”.

Consider `Cc1nnc(CC(OC(N)=O)c2cc(CCC(F)(F)F)ccc2F)o1` (stereo not shown) [Example 11, [1-[2-fluoro-5-(3,3,3-trifluoropropyl)phenyl]-2-(5-methyl-1,3,4-oxadiazol-2-yl)ethyl] carbamate], for which the “6 Hz, 44 mA protection rate” value was “+ (0.2 to 0.6 are scored as ‘+’)”.

As for `Cc1nnc(CC(OC(N)=O)c2cc(-c3ccc(C(F)(F)F)cc3)ccc2F)o1` (stereo not shown) [Example 3, [1-[2-fluoro-5-[4-(trifluoromethyl)phenyl]phenyl]-2-(5-methyl-1,3,4-oxadiazole-2-yl)ethyl] carbamate], the “6 Hz, 44 mA protection rate” value is “++ (0.6 to 0.8 are scored as ‘++’)”.

As to `Cc1nnc(CC(OC(N)=O)c2cc(OCCCC(F)(F)F)ccc2F)o1` (stereo not shown) [Example 16, [1-[2-fluoro-5-(4,4,4-trifluorobutoxy)phenyl]-2-(5-methyl-1,3,4-oxadiazol-2-yl)ethyl] carbamate], the “6 Hz, 44 mA protection rate” value is “++ (0.6 to 0.8 are scored as ‘++’)”.

Turning to `CC[C@@H](C(N)=O)N1CCCC1=O` [Levitiracetam, (S)-α-ethyl-2-oxo-1-pyrrolidine acetamide, reference compound], the “6 Hz, 44 mA protection rate” value was “− (the protection rates 0 to 0.2 are scored as ‘−’)”.

`Cc1nnc(CC(O)c2cc(OCCCC(F)(F)F)ccc2Cl)o1` (stereo not shown) [Example 39, 1-[2-chloro-5-(4,4,4-trifluorobutoxy)phenyl]-2-(5-methyl-1,3,4-oxadiazol-2-yl)ethanol]: the “6 Hz, 44 mA protection rate” value is recorded as “+ (0.2 to 0.6 are scored as ‘+’)”.

On to `Cc1nnc(CC(OC(N)=O)c2cc(OCC(F)(F)F)ccc2F)o1` (stereo not shown) [Example 18, [1-[2-fluoro-5-(2,2,2-trifluoroethoxy)phenyl]-2-(5-methyl-1,3,4-oxadiazol-2-yl)ethyl] carbamate], for which the “6 Hz, 44 mA protection rate” value is reported as “+ (0.2 to 0.6 are scored as ‘+’)”.
